Assay results published in PMC9289672, “Optimization of Antibacterial Activity in Tibetan Swine α-Helix Peptide TP by Site-Directed Mutagenesis” (Frontiers in Microbiology, 2022).
Where two headings read alike, the source gives them in different places. Where no end group is shown, it is not given here.

Tests used:
Gram-negative bacteria = test: Geometric mean of MIC and therapeutic index; assay type: cell-based; conditions: MHC/GM; 128 μm used when 50% hemolysis not observed at 128 μm
Method: (§1) The bacteria were cultured overnight in the MHB medium and transferred to the new MHB the next day until the bacteria reached the exponential growth stage. The bacteria were diluted with MHB to 2 × 10^5 CFU/ml. About 50 μl of polypeptide and equal volume of bacterial suspension was added to a 96-well plate to give the final concentration of polypeptide between 1 and 128 μm. The last two columns are negative (MHB only) and positive (bacterial and MHB) controls and incubated at 37°C for 18–24 h. Optical density was measured at an absorbance wavelength of 492 nm using a microplate reader (Tecan GENios F129004, Tecan, Austria). At least three independent measurements were taken. Each trial was conducted two times in parallel. A total of three independent assays were carried out.
(§2) Trp is a hydrophobic amino acid with aromatic side chains. It is a special amino acid in peptide design. Previous studies have pointed out that introducing amino acids will also bring toxicity while improving activity. […] For further evaluating the cell selectivity of the peptides, we also calculated the SI which defined as the ratio of MHC to the geometric mean (GM) (Dufourc, [2008]).

Gram-positive bacteria = test: Geometric mean of MIC and therapeutic index; assay type: cell-based; conditions: MHC/GM; 128 μm used when 50% hemolysis not observed at 128 μm
Method: as §1, §2

[1] = tested on: hRBCs (human red blood cells); test: Hemolytic activity; conditions: three independent assays, two in parallel
Method: (§5) The cytotoxicity of each peptide was assessed with IPEC-J12 and HEK 293T cells. […] Each trial was conducted two times in parallel. A total of three independent assays were carried out.

Escherichia coli UB1005 = conditions: MHB, bacteria diluted to 2 × 10^5 CFU/ml, peptide 1-128 μm, 37°C 18-24 h, OD 492 nm; three independent assays, two in parallel
Description: (§3) The bacteria strains Escherichia coli ATCC 25922, Escherichia coli UB1005, Salmonella typhimurium ATCC 14028, Salmonella typhimurium C7731, Pseudomonas aeruginosa ATCC 27853, Pseudomonas aeruginosa PAO1, Staphylococcus aureus ATCC 29213, Staphylococcus aureus ATCC 25923, Methicillin-resistant Staphylococcus aureus (MRSA) 43300, Enterococcus faecalis ATCC 29212, and Staphylococcus epidermidis ATCC 12228 were obtained from the College of Veterinary Medicine, Northeast Agricultural University (Harbin, China).
as §1

[2] = tested on: Pseudomonas aeruginosa PAO1
Description: as §3, §1

[3] = tested on: Staphylococcus aureus ATCC 29213
Description: as §3, §1

[4] = tested on: Staphylococcus aureus ATCC 25923
Description: as §3, §1

[5] = tested on: Enterococcus faecalis ATCC 29212
Description: as §3, §1

[6] = tested on: Salmonella typhimurium C7731; conditions: MHB, bacteria diluted to 2 × 10^5 CFU/ml, peptide 1-128 μm, 37°C 18-24 h, OD 492 nm; three independent assays, two in parallel
Description: as §3, §1

[7] = tested on: Methicillin-resistant Staphylococcus aureus (MRSA) 43300; conditions: Methicillin-resistant 43300
Description: as §3, §1

[8] = tested on: Staphylococcus epidermidis ATCC 12228
Description: as §3, §1

[9] = tested on: Salmonella typhimurium ATCC 14028
Description: as §3, §1

[10] = tested on: Escherichia coli ATCC 25922
Description: as §3, §1

[11] = tested on: Pseudomonas aeruginosa ATCC 27853
Description: as §3, §1

all strains in Table 2 = test: Geometric mean of MIC and therapeutic index; assay type: cell-based; conditions: MHC/GM; 128 μm used when 50% hemolysis not observed at 128 μm
Method: as §1
Trp is a hydrophobic amino acid with aromatic side chains. It is a special amino acid in peptide design. Previous studies have pointed out that introducing amino acids will also bring toxicity while improving activity. Therefore, at the beginning of the design, we predicted that selecting Trp as hydrophobic amino acid to substitute H-H position would bring certain toxicity to the peptide. Thus, as expected, the introduction of Trp increases the activity and toxicity of these peptides. […] Meanwhile, the virulence of TP(i+4) 1&2&5&6 and TP(i+4) 1&2&6&7 was lower than that of TP(i+4) 1&2&5&7. We infer that the location of hydrophobic centers can effectively reduce peptide toxicity by Trp substitution. For further evaluating the cell selectivity of the peptides, we also calculated the SI which defined as the ratio of MHC to the geometric mean (GM) (Dufourc, [2008]).

E. coli 25922 = assay type: cell-based, Escherichia coli; conditions: 25922, 4 h
Method: (§4) The salt and serum stability of polypeptides were determined by improved MIC method (Lv et al., [2014]). Peptides were incubated with BSA containing different final concentrations of salt ions (150 mM NaCl, 4.5 mM KCl, 6 μm NH4Cl, 8 μm ZnCl2, 1 mM MgCl2, 2 mM CaCl2, and 4 μm FeCl3) (Wang et al., [2018]). To determine the stability of the peptide in serum, peptide was incubated with different proportions of serum (50%, 100%) at 37°C for 4 h. The following steps are the same as those for antimicrobial activity. Each trial was conducted two times in parallel. A total of three independent assays were carried out.

[12] = tested on: hRBCs (human red blood cells)
Method: as §5

S. aureus 29213 = assay type: cell-based, Staphylococcus aureus; conditions: 29213, 4 h
Method: as §4

[13] = tested on: IPEC-J2 and HEK 293T cells
Method: as §5

Row | Substance | Therapeutic index (TI), Gram-negative bacteria (Gram-negative bacteria) | Therapeutic index (TI), Gram-positive bacteria (Gram-positive bacteria) | MHC (concentration of peptide that causes hemolysis of 50% of human red blood cells) [1] | MIC, E. coli UB1005 (Escherichia coli UB1005) | MIC, P. aeruginosa PAO1 [2] | MIC, S. aureus 29213 [3] | MIC, S. aureus 25923 [4] | MIC, E. faecalis 29212 [5] | MIC, S. typhimurium 7731 [6] | MIC, S. aureus 43300 [7] | MIC, S. epidermidis 12228 [8] | MIC, S. typhimurium 14028 [9] | MIC, E. coli 25922 [10] | MIC, P. aeruginosa 27853 [11] | Therapeutic index (TI) / selectivity index (SI), All (all strains in Table 2) | other results
1 | AKVVNKLTKGVAKLLK-NH2 [TP(i+4) 2&3] | 2.00 | 1.00 | >128 µM | 8 µM | 128 µM | >128 µM | >128 µM | >128 µM | 128 µM | >128 µM | >128 µM | 128 µM | 32 µM | 128 µM | 1.41 | 
2 | ASVVKKLTKGVAKLLK-NH2 [TP(i+4) 1&2] | 12.70 | 1.00 |  | 4 µM | 8 µM | >128 µM | >128 µM | >128 µM | 16 µM | >128 µM | >128 µM | 32 µM | 4 µM | 16 µM | 3.56 | MIC after incubation with 100% serum (E. coli 25922): 32 µM; MIC in the presence of Ca2+ (E. coli 25922): >64 µM; MIC in the presence of Fe3+ (E. coli 25922): 8 µM; MIC in the presence of K+ (E. coli 25922): 8 µM; MIC in the presence of Mg2+ (E. coli 25922): 32 µM; MIC in the presence of NH4+ (E. coli 25922): 8 µM; MIC in the presence of Na+ (E. coli 25922): >64 µM; MIC in the presence of Zn2+ (E. coli 25922): 2 µM; MIC, Control (E. coli 25922): 4 µM; MHC (concentration of peptide that causes hemolysis of 50% of human red blood cells) [12]: >128 µM; MIC after incubation with 100% serum (S. aureus 29213): >64 µM; MIC in the presence of Ca2+ (S. aureus 29213): >64 µM; MIC in the presence of Fe3+ (S. aureus 29213): >64 µM; MIC in the presence of K+ (S. aureus 29213): >64 µM; MIC in the presence of Mg2+ (S. aureus 29213): >64 µM; MIC in the presence of NH4+ (S. aureus 29213): >64 µM; MIC in the presence of Na+ (S. aureus 29213): >64 µM; MIC in the presence of Zn2+ (S. aureus 29213): >64 µM; MIC, Control (S. aureus 29213): >64 µM
3 | ASVVKKWTKGWAKLLK-NH2 [TP(i+4) 1&2&6] | 10.08 | 1.50 | >128 µM | 8 µM | 8 µM | 64 µM | 128 µM | 128 µM | 32 µM | 64 µM | 64 µM | 16 µM | 4 µM | 32 µM | 3.89 | cell viability [13]: ~ 50%
4 | ASVVKKWWKGWWKLLK-NH2 [TP(i+4) 1&2&5&6] | 25.40 | 6.96 | 64.00 µM | 2 µM | 4 µM | 8 µM | 16 µM | 8 µM | 4 µM | 8 µM | 8 µM | 2 µM | 1 µM | 4 µM | 13.30 | 
5 | ASVVKWLTKWVAKLLK-NH2 [TP(i+4) 1&2&7] | 14.25 | 18.39 | 64.00 µM | 4 µM | 4 µM | 2 µM | 4 µM | 4 µM | 8 µM | 4 µM | 4 µM | 4 µM | 4 µM | 4 µM | 16.19 | 
6 | ASVVKWLWKWVWKLLK-NH2 [TP(i+4) 1&2&5&7] | 1.26 | 6.06 | 64.00 µM | 16 µM | >128 µM | 8 µM | 16 µM | 8 µM | >128 µM | 16 µM | 8 µM | 32 µM | 16 µM | >128 µM | 2.76 | 
7 | ASVVKWWTKWWAKLLK-NH2 [TP(i+4) 1&2&6&7] | 12.70 | 27.83 | 64.00 µM | 4 µM | 4 µM | 2 µM | 2 µM | 2 µM | 8 µM | 4 µM | 2 µM | 4 µM | 4 µM | 8 µM | 18.80 | 
8 | ASVVKWWWKWWWKLLK-NH2 [TP(i+4) 1&2&5&6&7] | 3.17 | 3.03 | 8.00 µM | 2 µM | 4 µM | 2 µM | 4 µM | 2 µM | 4 µM | 4 µM | 2 µM | 2 µM | 1 µM | 4 µM | 3.10 | 
9 | ASVVNKLTKKVAKLLK-NH2 [TP(i+4) 2&4] | 8.00 | 1.00 |  | 8 µM | 8 µM | >128 µM | >128 µM | >128 µM | 16 µM | >128 µM | >128 µM | 64 µM | 8 µM | 32 µM | 2.83 | MHC (concentration of peptide that causes hemolysis of 50% of human red blood cells) [12]: >128 µM
